Source: patent publication US9987368B2, “Pharmaceutical composition comprising polypeptide” (SANTEN PHARMACEUTICAL CO., LTD., priority 2015, dated 2018)

Tests used:
[1] = system: choroidal neovascularization models in rats; conditions: US 2007/0149574; cited from earlier work
[2] = system: cancer models in mice; conditions: US 2007/0149574; cited from earlier work
[3] = system: VEGF-induced HUVEC proliferation; conditions: US 2007/0149574; cited from earlier work
[4] = system: adjuvant arthritis models in rats; conditions: US 2007/0149574; cited from earlier work
[5] = Dissolution performance evaluation test; format: physicochemical; conditions: for Property: visually checked
Method: Drug dissolving abilities of various solutions were examined.
The compound represented by the above formula (2) (2-[[[2-[(hydroxyacetyl)amino]-4-pyridinyl]methyl]thio]-N-[4-(trifluoromethoxy)phenyl]-3-pyridinecarboxamide, hereinafter also referred to as the drug A; prepared in accordance with the method described in the specification of US Patent Application Publication No. 2007/0149574) was added to each solvent (total 1 mL) out of various solvents of DMSO (GAYLORD), PEG 400 (Nacalai Tesque), and water, and was stirred at room temperature (25° C.) overnight (for 8 hours). Then, the properties of the resultant solvents were visually checked.

[6] = Depot formation evaluation test (1): gelatinizers in DMSO/water; format: physicochemical; conditions: solution of DMSO/water at the volume ratio (9:1)
Method: Depot (deposited mass) formations of various kinds of gelatinizers were examined.
Compositions 1 to 6 were prepared by blending each of various kinds of gelatinizers to a solvent of DMSO/water (volume ratio of 9:1) such that the gelatinizer is contained at 0.1% (w/v) (0.1% by mass of the gelatinizer is contained per 100 mL of the solution of DMSO/water). Then, calcium chloride dihydrate and magnesium chloride hexahydrate were dissolved in Dulbecco's phosphate buffered saline (−) (Product No. D-5652 manufactured by Sigma-Aldrich) to prepare Dulbecco's phosphate buffered saline (+). 0.005 mL of each of the compositions was added to 1 mL of the Dulbecco's phosphate buffered saline (+), and the formation of a depot was visually checked. The formation of a depot was evaluated in such a way that the depot is determined as formed if a mass formed of the composition deposited is observed.

[7] = Depot formation evaluation test (2): solvents of the polypeptide A; format: physicochemical
Method: Solvents of the polypeptide A were examined.
Compositions 2 to 6 and Comparative Examples 6 and 7 were prepared by adding 0.01 mL of an aqueous solution of the polypeptide A at 1% (w/v) (containing 1% by mass of the polypeptide A per 100 mL of water) to 0.09 mL of each of various solvents, followed by stirring. 0.005 mL of each of the compositions was administered to 1 mL of the Dulbecco's phosphate buffered saline (+), and the formation of a depot was visually checked.

Molecule	choroidal neovascularization inhibitory action [1]	tumor growth inhibitory action [2]	cell proliferation inhibitory action [3]	paw edema inhibitory action [4]	Property ([5]; Test 1: Drug A 20 mg in DMSO 0.9 mL + water 0.1 mL, stirred at room temperature (25° C.) overnight)	Property ([5]; Test 2: Drug A 60 mg in DMSO 0.9 mL + water 0.1 mL, stirred at 25° C. overnight)	Property ([5]; Test 3: Drug A 60 mg in water 1 mL, stirred at 25° C. overnight)	Property ([5]; Test 4: Drug A 25 mg in PEG 400 1 mL, stirred at 25° C. overnight)	Property ([5]; Test 5: Drug A 25 mg in PEG 400 0.9 mL + water 0.1 mL, stirred at 25° C. overnight)	Property ([5]; Test 6: Drug A 25 mg in PEG 400 0.8 mL + water 0.2 mL, stirred at 25° C. overnight)	Property ([5]; Test 7: Drug A 25 mg in water 1 mL, stirred at 25° C. overnight)	Dissolution of the drug in solution containing DMSO or PEG 400 ([5]; solution containing DMSO or PEG 400)	Dissolution of the drug in water ([5]; water)	Depot formation [6]	Depot formation ([7]; DMSO, PEG 200, PEG 400, glycofurol and N-methylpyrrolidone used as the solvents)	Depot formation ([7]; ethanol and N,N-dimethylacetamide used as the solvents)
O=C(CO)Nc1cc(CSc2ncccc2C(=O)Nc2ccc(OC(F)(F)F)cc2)ccn1 [Drug A, 2-[[[2-[(hydroxyacetyl)amino]-4-pyridinyl]methyl]thio]-N-[4-(trifluoromethoxy)phenyl]-3-pyridinecarboxamide]	demonstrated a choroidal neovascularization inhibitory action	demonstrated a tumor growth inhibitory action	demonstrated a cell proliferation inhibitory action	demonstrated a paw edema inhibitory action	Solution	Solution	Suspension	Solution	Solution	Solution	Suspension	can dissolve the drug	cannot be dissolved in water	–	–	–
Ac-(Arg-Ala-Asp-Ala)4-NH2 [polypeptide A]	–	–	–	–	–	–	–	–	–	–	–	–	–	formed a depot	formed a depot	did not form a depot
